Laboratory results published in US12180169B1, “4-[4,4-bis(4-bromophenyl)-5-oxo-2-thioxoimidazolidin-1-yl]butanoic acid as an antimicrobial compound” (KING FAISAL UNIVERSITY, priority 2023, dated 2024).

Legend:
Type in all cases: cell-based
Details in all cases: after 10, 20, 40 and 60 min at all dilutions 1:100, 1:200, 1:400, 1:800
Staphylococcus aereus = assay: Antimicrobial testing by agar dilution, Staphylococcus aereus
Method: (§1) The antimicrobial properties of the 4-[4,4-bis(4-bromophenyl)-2,5-dioxoimidazolidin-1-yl]butanoic acid were studied by the method of agar dilution. Test solutions of each compound was prepared in concentration of 1% using dimethylformamide as a solvent then they are diluted in physiological solution to obtain the final experimental dilutions 1:100, 1:200, 1:400, 1:800. The effect of these substances are compared with furacillin in a controlable study. The testing microbes used were gram positive bacteria Staphylococcus aereus, gram negative bacteria Escherichia coli, Pseudomonas aeruginosa and Candida albicans fungi were taken. The experiments used for this survey were meat-pentonlu agar (EPA) for cultivation of bacteria and Saburo environment for fungi. Each experiment used 1 ml of test solution on each plate 500 min. Add 2 drops of emulsified with microbes feel. All experimental samples were taken from the agar after 10, 20, 40, 60 minutes in the environment on the basis of Patrk planted. Bacteria were cultivated at a temperature of 37° C. for 1 day and the mushroom was kept in a thermostat for […] at a temperature of 28° C. in the. Then results were checked.

Escherichia coli = assay: Antimicrobial testing by agar dilution, Escherichia coli
Method: as §1

Pseudomonas aeruginosa = assay: Antimicrobial testing by agar dilution, Pseudomonas aeruginosa
Method: as §1

Candida albicans = assay: Antimicrobial testing by agar dilution, Candida albicans fungi
Method: as §1

Measured: inhibition activity (summary in words)

O=C(O)CCCN1C(=O)C(c2ccc(Br)cc2)(c2ccc(Br)cc2)NC1=S [4-[4,4-bis(4-bromophenyl)-5-oxo-2-thioxoimidazolidin-1-yl]butanoic acid]
higher inhibition activity: all assays above
